In ChEMBL document CHEMBL2401715, “Synthesis, antitumor and antibacterial activities of some novel tetrahydrobenzo[4,5]thieno[2,3-d]pyrimidine derivatives” (Eur J Med Chem, 2013):

What was measured:
Pseudomonas aeruginosa = experiment: Antibacterial activity against Pseudomonas aeruginosa ATCC 10145 assessed as growth inhibition after 24 to 48 hrs by kirby-bauer disc diffusion method; type: functional; further: test concentration or dose not given here
Escherichia coli = experiment: Antibacterial activity against Escherichia coli ATCC 11775 assessed as growth inhibition after 24 to 48 hrs by kirby-bauer disc diffusion method; type: functional, DSM 30083 = JCM 1649; further: test concentration or dose not given here
Staphylococcus aureus = experiment: Antibacterial activity against Staphylococcus aureus ATCC 12600 assessed as growth inhibition after 24 to 48 hrs by kirby-bauer disc diffusion method; type: functional; further: test concentration or dose not given here
Bacillus subtilis = experiment: Antibacterial activity against Bacillus subtilis ATCC 6051 assessed as growth inhibition after 24 to 48 hrs by kirby-bauer disc diffusion method; type: functional; further: test concentration or dose not given here
HepG2 = experiment: Cytotoxicity against human HepG2 cells assessed as cell survival after 48 hrs by SRB assay; type: functional, cell-based; conditions: HepG2, 48 h
MCF7 = experiment: Cytotoxicity against human MCF7 cells assessed as cell survival after 48 hrs by SRB assay; type: functional, cell-based; conditions: MCF7, 48 h

Row | SMILES | diameter of the inhibition zone (DIZ) (Pseudomonas aeruginosa) | diameter of the inhibition zone (DIZ) (Escherichia coli) | diameter of the inhibition zone (DIZ) (Staphylococcus aureus) | diameter of the inhibition zone (DIZ) (Bacillus subtilis) | IC50 (HepG2) | IC50 (MCF7)
1 | O=C(O)C(Cc1ccccc1)n1c(/C=C/c2ccccc2)nc2sc3c(c2c1=O)CCCC3 (centres undefined) | 14 mm | 14 mm | 16 mm | 13 mm | 31.5 µM | 45.3 µM
2 | O=C(O)C(Cc1cc2ccccc2[nH]1)n1c(/C=C/c2ccccc2)nc2sc3c(c2c1=O)CCCC3 (centres undefined) | 0 mm | 0 mm | 0 mm | 0 mm | 29.7 µM | > 202 µM
3 | O=C1NOCC1n1c(/C=C/c2ccccc2)nc2sc3c(c2c1=O)CCCC3 (centres undefined) | 16 mm | 15 mm | 19 mm | 15 mm | 6.86 µM | 39.4 µM
4 | O=c1cc(-n2c(/C=C/c3ccccc3)nc3sc4c(c3c2=O)CCCC4)[nH]c(=O)[nH]1 | 15 mm | 15 mm | 18 mm | 16 mm | 67.2 µM | 11.2 µM
5 | O=c1c2c3c(sc2nc(/C=C/c2ccccc2)n1-c1nc2ccccc2s1)CCCC3 | 14 mm | 13 mm | 16 mm | 13 mm | 10.6 µM | 4.3 µM
6 | Cc1ccc2sc(-n3c(/C=C/c4ccccc4)nc4sc5c(c4c3=O)CCCC5)nc2c1 | 14 mm | 14 mm | 16 mm | 15 mm | 36.7 µM | 15.8 µM
7 | O=c1c2c3c(sc2nc(/C=C/c2ccccc2)n1-c1nc2cc([N+](=O)[O-])ccc2s1)CCCC3 | 15 mm | 14 mm | 15 mm | 14 mm | 10.3 µM | 1.23 µM
8 | O=c1[nH]c(/C=C/c2ccccc2)nc2sc3c(c12)CCCC3 | 0 mm | 0 mm | 0 mm | 0 mm | 12 µM | 28.2 µM
9 | O=c1[nH]c(/C=C/c2ccccc2[N+](=O)[O-])nc2sc3c(c12)CCCC3 | 0 mm | 10 mm | 0 mm | 0 mm | 11.9 µM | 11.9 µM
10 | C/C(=C\c1ccccc1)c1nc2sc3c(c2c(=O)[nH]1)CCCC3 | 0 mm | 0 mm | 0 mm | 0 mm | 33.2 µM | 24.8 µM
11 | COc1cc(-c2nc(NC(=O)NO)c3c4c(sc3n2)CCCC4)cc(OC)c1OC | 0 mm | 0 mm | 0 mm | 0 mm | 2.32 µM | 14.2 µM
12 | O=C(NO)Nc1nc(/C=C/c2ccccc2)nc2sc3c(c12)CCCC3 | 12 mm | 10 mm | 10 mm | 11 mm | 3.27 µM | 6.54 µM
13 | Cc1c2ccc(N)cc2nc2cc(Nc3nc(/C=C/c4ccccc4)nc4sc5c(c34)CCCC5)ccc12 | 12 mm | 12 mm | 21 mm | 20 mm | 1.36 µM | 0.58 µM
14 | COc1cccc2c1C(=O)c1c(O)c3c(c(O)c1C2=O)C[C@@](O)(C(=O)CO)C[C@@H]3O[C@H]1C[C@H](N)[C@H](O)[C@H](C)O1 [DOXORUBICIN] |  |  |  |  | 7.36 µM | 
